Assay results from ChEMBL document CHEMBL4373693, “Virtual Screening Approach and Investigation of Structure-Activity Relationships To Discover Novel Bacterial Topoisomerase Inhibitors Targeting Gram-Positive and Gram-Negative Pathogens” (J Med Chem, 2019).
Values after ≈ are worked out from the molar mass of the structure shown.

Tests used:
[1] = target: T1, DNA gyrase (Escherichia coli, UniProt P0AES4+P0AES6); experiment: Inhibition of Escherichia coli DNA gyrase; type: protein-complex assay
[2] = Inhibition of Escherichia coli DNA topoisomerase 4
[3] = test system: Staphylococcus aureus; experiment: Antibacterial activity against Staphylococcus aureus; type: functional
[4] = test system: Escherichia coli; experiment: Antibacterial activity against Escherichia coli; type: functional
[5] = target: T1, DNA gyrase; experiment: Inhibition of Escherichia coli DNA gyrase assessed as reduction in enzyme-mediated supercoiling of relaxed plasmid by fluorescence polarization assay; type: protein-complex assay
[6] = Inhibition of Escherichia coli topoisomerase 4 after 24 hrs by ATPase assay
[7] = test system: Escherichia coli; experiment: Antibacterial activity against Escherichia coli ATCC 25922 by CLSI method; type: functional
[8] = test system: Haemophilus influenzae; experiment: Antibacterial activity against quinolone-sensitive Haemophilus influenzae H128 after 16 to 24 hrs by broth microdilution method; type: functional
[9] = target: DNA gyrase subunit A (Staphylococcus aureus, UniProt P20831); experiment: Inhibition of Staphylococcus aureus ATCC 29213 DNA gyrase A assessed as reduction in enzyme-mediated supercoiling of relaxed pBR322 DNA by ethidium bromide staining based gel electrophoresis method
[10] = test system: Neisseria gonorrhoeae; experiment: Antibacterial activity against Neisseria gonorrhoeae ATCC 19424 after 16 to 24 hrs by broth microdilution method; type: functional
[11] = test system: Enterococcus faecium; experiment: Antibacterial activity against vancomycin resistant and teicoplanin sensitive Enterococcus faecium APV 00420 after 16 to 24 hrs by broth microdilution method; type: functional
[12] = target: DNA topoisomerase 4 subunit A (Staphylococcus aureus, UniProt P0C1U9); experiment: Inhibition of Staphylococcus aureus ATCC 29213 DNA topoisomerase 4 subunit ParC assessed as reduction in decatenation of kinetoplast DNA incubated for 30 mins by ethidium bromide staining based gel electrophoresis method
[13] = Selectivity ratio, ratio of IC50 for human HepG2 cells to MIC for Escherichia coli ATCC 25922; type: toxicity; settings: read-out: Selectivity Index
[14] = Cytotoxicity against human HCE2 cells incubated for 2 hrs by MTT assay; type: cell-based
[15] = test system: Staphylococcus aureus; experiment: Antibacterial activity against Staphylococcus aureus ATCC 29213 in presence of 50% human serum after 16 to 24 hrs by broth microdilution method; type: functional
[16] = test system: Staphylococcus aureus; experiment: Antibacterial activity against Staphylococcus aureus BAA-1720 after 16 to 24 hrs by broth microdilution method; type: functional
[17] = test system: HT-29; experiment: Cytotoxicity against human HT-29 cells after 24 hrs by resazurin dye based CellTiter-Blue assay; type: cell-based; settings: HT-29, 24 h
[18] = Selectivity ratio, ratio of IC50 for human HepG2 cells to MIC for Staphylococcus aureus ATCC 29213; type: toxicity; settings: read-out: Selectivity Index
[19] = test system: Haemophilus influenzae; experiment: Antibacterial activity against quinolone-sensitive Haemophilus influenzae ATCC 49766 after 16 to 24 hrs by broth microdilution method; type: functional
[20] = test system: Staphylococcus aureus; experiment: Selectivity ratio of MIC for Staphylococcus aureus ATCC 29213 in presence of 50% human serum to MIC for Staphylococcus aureus ATCC 29213; type: functional
[21] = target: DNA gyrase subunit A (Escherichia coli K-12, UniProt P0AES4); experiment: Inhibition of Escherichia coli ATCC 25922 DNA gyrase A assessed as reduction in enzyme-mediated supercoiling of relaxed pBR322 DNA by ethidium bromide staining based gel electrophoresis method
[22] = test system: Escherichia coli; experiment: Antibacterial activity against Escherichia coli ATCC 25922 after 16 to 24 hrs by broth microdilution method; type: functional
[23] = test system: Staphylococcus aureus; experiment: Selectivity ratio of MIC for Staphylococcus aureus BAA-1720 in presence of 50% human serum to MIC for Staphylococcus aureus BAA-1720; type: functional
[24] = test system: HepG2; experiment: Cytotoxicity against human HepG2 cells after 48 hrs by Alamar blue staining-based fluorometric analysis; type: cell-based; settings: HepG2, 48 h
[25] = target: T2, DNA topoisomerase 4 subunit A (Escherichia coli K-12, UniProt P0AFI2); experiment: Inhibition of Escherichia coli ATCC 25922 DNA topoisomerase 4 subunit ParC assessed as reduction in decatenation of kinetoplast DNA incubated for 30 mins by ethidium bromide staining based gel electrophoresis method
T2 sequence (P0AFI2 whole entry): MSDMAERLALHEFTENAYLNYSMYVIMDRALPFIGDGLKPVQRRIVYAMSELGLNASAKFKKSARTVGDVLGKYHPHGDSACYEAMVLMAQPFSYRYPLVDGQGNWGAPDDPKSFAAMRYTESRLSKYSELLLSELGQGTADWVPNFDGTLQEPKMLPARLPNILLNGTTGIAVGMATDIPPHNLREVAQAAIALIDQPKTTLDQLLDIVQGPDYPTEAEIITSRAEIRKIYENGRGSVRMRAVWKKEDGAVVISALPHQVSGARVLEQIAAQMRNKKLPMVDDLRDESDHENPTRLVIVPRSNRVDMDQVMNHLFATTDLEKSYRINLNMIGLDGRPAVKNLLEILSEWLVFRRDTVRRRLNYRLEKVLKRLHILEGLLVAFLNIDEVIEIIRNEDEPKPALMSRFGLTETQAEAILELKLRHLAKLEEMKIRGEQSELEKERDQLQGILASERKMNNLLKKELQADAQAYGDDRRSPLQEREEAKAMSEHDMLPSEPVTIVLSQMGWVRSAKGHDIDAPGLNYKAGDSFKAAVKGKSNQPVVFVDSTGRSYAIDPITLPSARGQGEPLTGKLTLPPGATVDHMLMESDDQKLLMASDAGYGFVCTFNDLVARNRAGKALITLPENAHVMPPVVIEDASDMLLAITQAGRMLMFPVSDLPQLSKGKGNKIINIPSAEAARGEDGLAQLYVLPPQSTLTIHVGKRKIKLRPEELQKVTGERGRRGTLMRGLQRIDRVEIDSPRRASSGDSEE

[26] = test system: Staphylococcus aureus; experiment: Antibacterial activity against Staphylococcus aureus BAA-1720 in presence of 50% human serum after 16 to 24 hrs by broth microdilution method; type: functional
[27] = test system: Klebsiella pneumoniae; experiment: Antibacterial activity against quinolone-sensitive Klebsiella pneumoniae ATCC 700603 after 16 to 24 hrs by broth microdilution method; type: functional
[28] = test system: Escherichia coli; experiment: Antibacterial activity against Escherichia coli ATCC 25922 in presence of 50% human serum after 16 to 24 hrs by broth microdilution method; type: functional
[29] = test system: HEK293; experiment: Cytotoxicity against human HEK293 cells after 48 hrs by Alamar blue staining-based fluorometric analysis; type: cell-based; settings: HEK293, 48 h
[30] = test system: Enterococcus faecalis; experiment: Antibacterial activity against Enterococcus faecalis ATCC 29212 after 16 to 24 hrs by broth microdilution method; type: functional
[31] = Selectivity ratio, ratio of IC50 for human HEK293 cells to MIC for Escherichia coli ATCC 25922; type: toxicity; settings: read-out: Selectivity Index
[32] = test system: Staphylococcus aureus; experiment: Antibacterial activity against Staphylococcus aureus ATCC 29213 after 16 to 24 hrs by broth microdilution method; type: functional
[33] = test system: Pseudomonas aeruginosa; experiment: Antibacterial activity against Pseudomonas aeruginosa ATCC 27853 after 16 to 24 hrs by CLSI method; type: functional
[34] = test system: Escherichia coli; experiment: Selectivity ratio of MIC for Escherichia coli ATCC 25922 in presence of 50% human serum to MIC for Escherichia coli ATCC 25922; type: functional
[35] = Selectivity ratio, ratio of IC50 for human HEK293 cells to MIC for Staphylococcus aureus ATCC 29213; type: toxicity; settings: read-out: Selectivity Index
[36] = target: hERG (KCNH2) (Homo sapiens, UniProt Q12809); experiment: Inhibition of human ERG expressed in CHO cells at 10 uM after 5 mins by automated whole-cell patch clamp relative to control; type: cell-based; settings: CHO cells that express human ERG
[37] = test system: Enterococcus faecalis; experiment: Antibacterial activity against vancomycin and teicoplanin-resistant Enterococcus faecalis APV 00408 after 16 to 24 hrs by broth microdilution method; type: functional
[38] = test system: Enterococcus faecalis; experiment: Antibacterial activity against vancomycin-sensitive Enterococcus faecalis APV 00623 after 16 to 24 hrs by broth microdilution method; type: functional
[39] = test system: HaCaT; experiment: Cytotoxicity against human HaCaT cells after 24 hrs by resazurin dye based CellTiter-Blue assay; type: cell-based
[40] = test system: Enterococcus faecalis; experiment: Antibacterial activity against vancomycin and teicoplanin-resistant Enterococcus faecalis APV 00409 after 16 to 24 hrs by broth microdilution method; type: functional
[41] = test system: Enterococcus faecium; experiment: Antibacterial activity against vancomycin and teicoplanin-resistant Enterococcus faecium APV 00424 after 16 to 24 hrs by broth microdilution method; type: functional
[42] = test system: Enterococcus faecium; experiment: Antibacterial activity against Enterococcus faecium APV 00627 after 16 to 24 hrs by broth microdilution method; type: functional
[43] = test system: Enterococcus faecium; experiment: Antibacterial activity against vancomycin resistant and teicoplanin sensitive Enterococcus faecium APV 00553 after 16 to 24 hrs by broth microdilution method; type: functional
[44] = test system: Enterococcus faecalis; experiment: Antibacterial activity against vancomycin-sensitive Enterococcus faecalis APV 00406 after 16 to 24 hrs by broth microdilution method; type: functional
[45] = test system: Enterococcus faecium; experiment: Antibacterial activity against Enterococcus faecium APV 00626 after 16 to 24 hrs by broth microdilution method; type: functional
[46] = test system: Enterococcus faecalis; experiment: Antibacterial activity against vancomycin-sensitive Enterococcus faecalis APV 00404 after 16 to 24 hrs by broth microdilution method; type: functional
[47] = test system: Enterococcus faecium; experiment: Antibacterial activity against vancomycin and teicoplanin-resistant Enterococcus faecium APV 00422 after 16 to 24 hrs by broth microdilution method; type: functional

DNA gyrase subunit A (Staphylococcus aureus, UniProt P20831), sequence (P20831 whole entry): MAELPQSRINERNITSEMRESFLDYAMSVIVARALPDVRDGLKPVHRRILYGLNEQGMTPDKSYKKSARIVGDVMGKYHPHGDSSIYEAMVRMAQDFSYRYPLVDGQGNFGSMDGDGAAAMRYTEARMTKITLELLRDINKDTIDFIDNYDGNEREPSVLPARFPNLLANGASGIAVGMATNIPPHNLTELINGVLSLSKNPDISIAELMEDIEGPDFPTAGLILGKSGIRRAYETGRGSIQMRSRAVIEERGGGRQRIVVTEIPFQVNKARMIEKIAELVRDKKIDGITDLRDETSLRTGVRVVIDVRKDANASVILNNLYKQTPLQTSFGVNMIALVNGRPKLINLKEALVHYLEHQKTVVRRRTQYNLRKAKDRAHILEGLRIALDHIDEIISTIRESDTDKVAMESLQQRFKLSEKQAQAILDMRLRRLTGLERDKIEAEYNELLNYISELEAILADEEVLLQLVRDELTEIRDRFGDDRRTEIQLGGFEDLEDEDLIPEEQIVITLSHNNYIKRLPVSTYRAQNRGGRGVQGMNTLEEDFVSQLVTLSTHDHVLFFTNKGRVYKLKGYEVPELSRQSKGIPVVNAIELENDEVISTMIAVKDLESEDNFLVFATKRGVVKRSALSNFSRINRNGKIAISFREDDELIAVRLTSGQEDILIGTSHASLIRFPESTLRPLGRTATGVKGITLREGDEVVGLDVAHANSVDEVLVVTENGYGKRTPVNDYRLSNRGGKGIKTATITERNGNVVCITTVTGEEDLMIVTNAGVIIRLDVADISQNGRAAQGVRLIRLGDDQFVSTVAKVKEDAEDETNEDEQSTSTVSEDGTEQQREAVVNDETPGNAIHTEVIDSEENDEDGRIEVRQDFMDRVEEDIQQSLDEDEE
DNA gyrase subunit A (Escherichia coli K-12, UniProt P0AES4), sequence (P0AES4 whole entry): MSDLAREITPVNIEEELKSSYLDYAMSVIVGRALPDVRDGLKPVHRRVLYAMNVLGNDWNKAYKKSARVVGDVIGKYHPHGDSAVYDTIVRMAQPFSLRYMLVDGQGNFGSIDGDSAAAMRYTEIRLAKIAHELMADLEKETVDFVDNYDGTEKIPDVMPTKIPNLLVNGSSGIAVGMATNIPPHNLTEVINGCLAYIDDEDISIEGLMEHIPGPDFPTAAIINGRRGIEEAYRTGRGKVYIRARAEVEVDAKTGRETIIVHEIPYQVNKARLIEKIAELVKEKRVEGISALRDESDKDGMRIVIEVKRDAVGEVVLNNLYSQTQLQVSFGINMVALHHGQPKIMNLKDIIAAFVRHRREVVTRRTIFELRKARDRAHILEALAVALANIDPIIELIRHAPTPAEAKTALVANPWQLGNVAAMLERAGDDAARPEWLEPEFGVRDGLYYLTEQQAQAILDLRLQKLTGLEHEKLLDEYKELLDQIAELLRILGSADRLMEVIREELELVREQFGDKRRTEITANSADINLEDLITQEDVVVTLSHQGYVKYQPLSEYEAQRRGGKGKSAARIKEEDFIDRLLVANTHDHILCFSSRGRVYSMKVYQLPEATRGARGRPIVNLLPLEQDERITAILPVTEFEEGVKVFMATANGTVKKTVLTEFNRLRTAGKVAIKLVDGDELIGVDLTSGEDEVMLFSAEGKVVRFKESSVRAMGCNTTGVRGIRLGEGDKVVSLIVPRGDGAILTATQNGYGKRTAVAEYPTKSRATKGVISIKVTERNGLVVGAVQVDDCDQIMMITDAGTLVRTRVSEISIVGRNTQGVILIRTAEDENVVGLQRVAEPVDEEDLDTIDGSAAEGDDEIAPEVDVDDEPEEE
DNA topoisomerase 4 subunit A (Staphylococcus aureus, UniProt P0C1U9), sequence (P0C1U9 whole entry): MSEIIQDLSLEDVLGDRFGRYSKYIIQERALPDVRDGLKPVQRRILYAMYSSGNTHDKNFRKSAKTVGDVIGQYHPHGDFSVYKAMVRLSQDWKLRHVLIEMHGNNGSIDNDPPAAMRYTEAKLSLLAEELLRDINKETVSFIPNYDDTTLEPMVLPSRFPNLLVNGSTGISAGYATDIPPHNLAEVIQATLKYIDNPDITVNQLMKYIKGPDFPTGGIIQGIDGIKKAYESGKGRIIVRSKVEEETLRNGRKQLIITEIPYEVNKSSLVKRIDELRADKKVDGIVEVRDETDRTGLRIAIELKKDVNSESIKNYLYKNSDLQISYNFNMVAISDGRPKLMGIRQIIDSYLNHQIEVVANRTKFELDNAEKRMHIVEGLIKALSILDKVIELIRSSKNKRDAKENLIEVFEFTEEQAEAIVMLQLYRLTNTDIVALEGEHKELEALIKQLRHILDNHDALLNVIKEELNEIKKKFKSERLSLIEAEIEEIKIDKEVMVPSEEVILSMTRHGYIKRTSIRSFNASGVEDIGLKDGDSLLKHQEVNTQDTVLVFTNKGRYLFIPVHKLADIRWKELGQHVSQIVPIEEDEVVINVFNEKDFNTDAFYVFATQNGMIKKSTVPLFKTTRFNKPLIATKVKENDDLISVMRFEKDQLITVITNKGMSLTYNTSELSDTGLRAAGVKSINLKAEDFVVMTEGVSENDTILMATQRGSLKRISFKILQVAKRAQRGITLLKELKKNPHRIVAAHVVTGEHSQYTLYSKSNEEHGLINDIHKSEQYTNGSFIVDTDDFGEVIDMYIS
hERG (KCNH2), sequence (Q12809 whole entry): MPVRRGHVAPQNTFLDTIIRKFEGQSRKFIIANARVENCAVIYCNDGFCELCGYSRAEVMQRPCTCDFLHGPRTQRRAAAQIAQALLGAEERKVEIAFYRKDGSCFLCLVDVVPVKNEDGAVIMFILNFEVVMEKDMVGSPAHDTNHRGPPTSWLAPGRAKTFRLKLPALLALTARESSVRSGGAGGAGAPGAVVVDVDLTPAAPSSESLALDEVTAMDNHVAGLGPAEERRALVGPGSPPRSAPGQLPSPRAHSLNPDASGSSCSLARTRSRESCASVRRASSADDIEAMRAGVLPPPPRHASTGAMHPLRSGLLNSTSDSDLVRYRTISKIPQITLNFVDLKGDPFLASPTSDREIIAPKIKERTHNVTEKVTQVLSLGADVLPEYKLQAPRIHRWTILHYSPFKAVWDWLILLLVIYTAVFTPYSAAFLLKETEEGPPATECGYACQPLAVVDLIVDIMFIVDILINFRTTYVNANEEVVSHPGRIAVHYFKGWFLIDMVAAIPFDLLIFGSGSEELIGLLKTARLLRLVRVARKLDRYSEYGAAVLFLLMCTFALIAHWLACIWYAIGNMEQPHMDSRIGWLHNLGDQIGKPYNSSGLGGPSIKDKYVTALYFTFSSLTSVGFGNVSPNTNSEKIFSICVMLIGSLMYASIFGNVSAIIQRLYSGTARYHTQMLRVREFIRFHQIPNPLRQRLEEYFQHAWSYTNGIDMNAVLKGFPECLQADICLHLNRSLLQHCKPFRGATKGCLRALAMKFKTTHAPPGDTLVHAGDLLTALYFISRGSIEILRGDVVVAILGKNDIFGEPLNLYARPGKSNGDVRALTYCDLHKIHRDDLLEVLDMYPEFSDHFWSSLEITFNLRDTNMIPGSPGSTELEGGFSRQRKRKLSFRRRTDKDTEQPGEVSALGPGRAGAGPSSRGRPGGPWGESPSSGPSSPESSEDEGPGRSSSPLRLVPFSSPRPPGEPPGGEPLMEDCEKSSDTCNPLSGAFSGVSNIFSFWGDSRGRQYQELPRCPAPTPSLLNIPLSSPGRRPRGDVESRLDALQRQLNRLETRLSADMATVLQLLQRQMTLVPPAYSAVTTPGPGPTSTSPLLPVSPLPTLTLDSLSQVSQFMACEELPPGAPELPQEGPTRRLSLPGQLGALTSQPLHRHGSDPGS

Row | SMILES | MIC [3] | MIC [8] | IC50 [9] | MIC [10] | MIC [11] | IC50 [12] | selectivity ratio [13] | MIC [15] | MIC [16] | selectivity ratio [18] | MIC [19] | Ratio [20] | IC50 [21] | MIC [22] | Ratio [23] | IC50 [24] | IC50 [25] | MIC [26] | MIC [27] | MIC [28] | other results
1 | COc1ccc2c3conc3c(=O)n(CCN3CCC(NCc4ccc5c(n4)NC(=O)CO5)CC3)c2c1 | 0.12 µg/mL (≈ 0.238 µM) | – | – | – | – | – | – | – | – | – | – | – | – | – | – | – | – | – | – | – | IC50 [1]: 1660 nM; IC50 [2]: 140 nM; MIC [4]: 0.12 µg/mL (≈ 0.238 µM)
2 | N[C@@H](Cn1c(=O)cnc2ccc(F)cc21)C1CCC(NCc2ncc3c(n2)OCC(=O)N3)CC1 (some centres undefined) | 1 µg/mL (≈ 2.14 µM) | – | – | – | – | – | – | – | – | – | – | – | – | – | – | – | – | – | – | – | IC50 [5]: 20 nM; IC50 [6]: 3 nM; MIC90 [7]: 2 µg/mL (≈ 4.28 µM)
3 | COc1ccc2cc(F)nc(N3CCN(CC(O)CNc4cc(=O)oc5ccc(F)cc45)CC3)c2c1 (racemic) | – | 0.5 µg/mL (≈ 1.01 µM) | < 100 nM | ≤ 0.06 µg/mL | 0.12 µg/mL (≈ 0.242 µM) | < 100 nM | 25 | 8 µg/mL | 0.03 µg/mL (≈ 0.0604 µM) | > 208 | 0.5 µg/mL (≈ 1.01 µM) | >=32 - 267 | 40 nM | 1 µM (≈ 0.497 µg/mL) | >=32 - 267 | 25000 nM | 100 nM | 4 µg/mL | 4 µg/mL (≈ 8.06 µM) | > 8 µg/mL | IC50 [14]: > 150000 nM; IC50 [17]: > 100000 nM; IC50 [29]: 66000 nM; MIC [30]: 0.25 µg/mL (≈ 0.504 µM); selectivity ratio [31]: 66; MIC [32]: < 0.12 µM; MIC [33]: 4 µg/mL (≈ 8.06 µM); Ratio [34]: >=32 - 267; selectivity ratio [35]: > 5500
4 | O=c1nc(NCC(O)CN2CCN(c3nc(F)cc4ccc(F)cc34)CC2)c2cc(F)ccc2o1 (racemic) | – | 0.06 µg/mL (≈ 0.124 µM) | 20 nM | ≤ 0.06 µg/mL | 0.25 µg/mL (≈ 0.515 µM) | 40 nM | 30 | 4 µg/mL | 0.03 µg/mL (≈ 0.0618 µM) | > 258 | 0.12 µg/mL (≈ 0.247 µM) | >=32 - 267 | 100 nM | 1.02 µM (≈ 0.495 µg/mL) | >=32 - 267 | 31000 nM | 100 nM | 4 µg/mL | 1 µg/mL (≈ 2.06 µM) | > 8 µg/mL | inhibition at 5 min, 10 µM [36]: 24%; MIC [37]: 0.06 µg/mL (≈ 0.124 µM); MIC [38]: 0.12 µg/mL (≈ 0.247 µM); IC50 [39]: > 100000 nM; MIC [40]: 0.06 µg/mL (≈ 0.124 µM); MIC [41]: 0.06 µg/mL (≈ 0.124 µM); MIC [42]: 0.5 µg/mL (≈ 1.03 µM); MIC [43]: 0.25 µg/mL (≈ 0.515 µM); IC50 [29]: 52000 nM; MIC [30]: 0.12 µg/mL (≈ 0.247 µM); selectivity ratio [31]: 51; MIC [32]: < 0.12 µM; MIC [44]: 0.06 µg/mL (≈ 0.124 µM); MIC [33]: 2 µg/mL (≈ 4.12 µM); Ratio [34]: >=32 - 267; MIC [45]: 32 µg/mL (≈ 65.9 µM); MIC [46]: 0.12 µg/mL (≈ 0.247 µM); selectivity ratio [35]: > 433; MIC [47]: 0.12 µg/mL (≈ 0.247 µM)
